Experimental data: ChEMBL document CHEMBL4261648, “Lobaric acid and pseudodepsidones inhibit NF-κB signaling pathway by activation of PPAR-γ” (Bioorg Med Chem, 2018)

Columns and labels:
[1] = tested on: U-937; assay: Antiinflammatory activity in PMA-differentiated human U937 cells assessed as inhibition of LPS-induced TNFalpha secretion preincubated for 2 hrs followed by LPS stimulation and measured after 24 hrs post LPS challenge by ELISA relative to control; type: functional
[2] = tested on: U-937; assay: Antiinflammatory activity in human U937 cells assessed as inhibition of LPS-induced IL-8 production preincubated for 2 hrs followed by LPS stimulation and measured after 24 hrs post LPS challenge by ELISA; type: functional
[3] = tested on: U-937; assay: Antiinflammatory activity in human U937 cells assessed as inhibition of LPS-induced IL-1beta secretion preincubated for 2 hrs followed by LPS stimulation and measured after 24 hrs post LPS challenge by ELISA; type: functional
[4] = tested on: U-937; assay: Antiinflammatory activity in human U937 cells assessed as inhibition of LPS-induced IL-6 production preincubated for 2 hrs followed by LPS stimulation and measured after 24 hrs post LPS challenge by ELISA; type: functional
[5] = target: Toll-like receptor 4 (Homo sapiens) (UniProt O00206); assay: Inhibition of TLR4 in human U937-3xkappaB-LUC cells assessed as inhibition of Aggregatibacter actinomycetemcomitans LPS-induced NF-kappaB activation preincubated for 30 mins followed by LPS stimulation and measured after 6 hrs post LPS challenge by Bright-Glo luciferase reporter gene assay relative to control
Chain of Toll-like receptor 4 (Homo sapiens) (O00206 whole entry): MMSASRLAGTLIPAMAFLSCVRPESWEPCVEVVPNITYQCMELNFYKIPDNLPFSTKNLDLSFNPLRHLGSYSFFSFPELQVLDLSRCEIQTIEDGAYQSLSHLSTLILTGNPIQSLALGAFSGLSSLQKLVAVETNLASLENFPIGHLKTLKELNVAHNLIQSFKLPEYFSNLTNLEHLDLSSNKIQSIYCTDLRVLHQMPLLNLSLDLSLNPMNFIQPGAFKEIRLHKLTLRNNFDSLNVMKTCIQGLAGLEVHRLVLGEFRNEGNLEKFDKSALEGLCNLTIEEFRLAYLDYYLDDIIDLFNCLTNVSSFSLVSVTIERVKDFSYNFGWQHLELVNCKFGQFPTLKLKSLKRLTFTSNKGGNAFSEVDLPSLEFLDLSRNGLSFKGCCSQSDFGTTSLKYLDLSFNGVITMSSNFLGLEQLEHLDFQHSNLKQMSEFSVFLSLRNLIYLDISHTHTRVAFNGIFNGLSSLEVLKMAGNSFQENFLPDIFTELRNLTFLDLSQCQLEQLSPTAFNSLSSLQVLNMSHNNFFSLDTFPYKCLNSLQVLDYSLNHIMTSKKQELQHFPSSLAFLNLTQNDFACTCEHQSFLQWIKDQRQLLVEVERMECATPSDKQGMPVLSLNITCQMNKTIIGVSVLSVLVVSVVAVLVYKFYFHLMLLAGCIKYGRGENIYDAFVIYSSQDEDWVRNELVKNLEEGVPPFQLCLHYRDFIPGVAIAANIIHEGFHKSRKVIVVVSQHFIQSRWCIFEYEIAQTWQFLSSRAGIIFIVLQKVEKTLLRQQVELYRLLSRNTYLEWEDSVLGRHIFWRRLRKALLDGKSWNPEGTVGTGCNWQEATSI

inhibition [5]: 99.3%
SMILES: Cc1ccc(S(=O)(=O)/C=C/C#N)cc1
inhibition (INH) [1]: 99.5% | inhibition (INH) [2]: 99.1% | inhibition (INH) [3]: 95.9% | inhibition (INH) [4]: 99.2%
